The target of test [1] is T1, recombinant human BCAT1 enzyme (Homo sapiens, UniProt P54687).
T1 construct: purchased ATGen (South Korea) ATGP1479
T1 sequence (P54687 1-386): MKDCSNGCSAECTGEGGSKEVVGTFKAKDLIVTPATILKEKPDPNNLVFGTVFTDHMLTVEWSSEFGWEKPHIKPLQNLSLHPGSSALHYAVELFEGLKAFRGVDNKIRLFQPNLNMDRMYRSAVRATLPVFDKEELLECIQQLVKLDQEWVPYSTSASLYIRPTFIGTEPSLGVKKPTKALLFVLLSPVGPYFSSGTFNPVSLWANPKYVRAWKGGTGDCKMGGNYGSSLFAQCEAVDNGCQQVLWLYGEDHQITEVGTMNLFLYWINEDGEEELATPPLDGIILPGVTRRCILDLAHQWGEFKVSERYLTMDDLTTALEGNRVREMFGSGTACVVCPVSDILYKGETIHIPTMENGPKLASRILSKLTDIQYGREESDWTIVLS
As to the kind of experiment: In vitro assay 1a: BCAT1 biochemical assay (coupled LeuDH/NADH fluorescence readout). To be noted: recombinant human BCAT1 […], 32° C., 100 μM leucine, 50 μM α-ketoglutarate, NADH fluorescence over 90 min; read-out: BCAT1 IC50. The method, boiled down:
(§1)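 Transamination of leucine to KIC coupled to LeuDH-driven NADH-dependent reduction of KIC, NADH consumption read by fluorescence; 32° C in 50 mM HEPES pH 8.0, 50 mM ammonium sulfate, 1 mM EDTA, 2 mM DTT, 0.01% BSA, 0.005% Brij 35, 0.5 μM PLP.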

Another test has as its system MDA-MB231 cells. Description: In vitro assay 2: BCAT cellular assay, leucine in medium of MDA-MB231 cells. To be noted: 24 hours incubation, leucine level in medium (LeuDH/diaphorase/resazurin readout), read-out: MDAMB-231 IC50. It is filed as cell-based. How it is done:
(§2) In Vitro Assay 2: BCAT Cellular Assay
(§3) Levels of leucine were measured in medium of different tumor cell lines. The enzyme BOAT (Branched chain amino acid transferase) catalyzes the consumption of leucine.
(§4) Cells (U87-MG and MDA-MB231 from ATCC) were grown in Dulbecco's Modified Eagle Medium (DMEM) containing 10% fetal calf serum. They were harvested by trypsin and seeded into 96-well plates. Cells were incubated overnight at 37° C. in an atmosphere containing 5% carbon dioxide. The next day test compounds were added to each cell well. The final concentration of dimethylsulfoxide (DMSO) was 0.1% and DMSO controls were included. The plates were then placed in an incubator for 24 hours.
(§5) Leucine was measured in an enzymatic readout with leucine dehydrogenase (LeuDH) and diaphorase. Medium is deproteinized with perchloric acid. 30 μl of 1 M aqueous perchloric acid was added to each well and the plates were centrifuged.

The subject of a further test is U87-MG cells. Description: In vitro assay 2: BCAT cellular assay, leucine in medium of U87-MG cells. It is filed as cell-based. As to conditions: 24 hours incubation, leucine level in medium (LeuDH/diaphorase/resazurin readout). The protocol:
as §2, §3, §4, §5

In test [2] the target is T2, recombinant human BCAT2 enzyme (Homo sapiens, UniProt O15382).
T2 construct: purchased ATGen (South Korea) ATGP1523
T2 sequence (O15382 28-392): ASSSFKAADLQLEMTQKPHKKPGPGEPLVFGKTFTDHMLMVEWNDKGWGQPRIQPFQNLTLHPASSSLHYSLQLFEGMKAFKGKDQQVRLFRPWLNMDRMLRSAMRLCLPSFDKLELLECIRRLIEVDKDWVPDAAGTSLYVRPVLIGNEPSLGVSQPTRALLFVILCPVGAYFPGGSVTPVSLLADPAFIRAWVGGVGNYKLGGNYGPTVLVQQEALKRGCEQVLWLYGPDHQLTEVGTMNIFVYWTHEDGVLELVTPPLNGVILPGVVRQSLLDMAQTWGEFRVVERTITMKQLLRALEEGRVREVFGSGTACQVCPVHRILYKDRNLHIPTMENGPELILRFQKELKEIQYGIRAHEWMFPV
As to the kind of experiment: In vitro assay 1b: BCAT2 biochemical assay (coupled LeuDH/NADH fluorescence readout). Further: recombinant human BCAT2 0.75 nM. To be noted: recombinant human BCAT2 […], 32° C., 100 μM leucine, 50 μM α-ketoglutarate, NADH fluorescence over 90 min; read-out: BCAT2 IC50. The method, boiled down: as §1

Molecules are shown by their SMILES. Like-named read-outs stand apart in the source and are kept apart here. A value given as a limit tells only on which side of the number the result lay.

On to `Cc1ccccc1Oc1cc(-n2c(=O)cc(-c3ccc(C(F)(F)F)cc3)[nH]c2=O)c(F)cc1C#N` [Example 68, 4-{2,6-Dioxo-4-[4-(trifluoromethyl)phenyl]-3,6-dihydropyrimidin-1(2H)-yl}-5-fluoro-2-(2-methylphenoxy)benzonitrile], for which the IC50 in test [1] worked out at 2.16 µM; in the test on MDA-MB231 cells (Homo sapiens, MDA-MB-231, 24 h), 9 µM; in the test with U87-MG cells (Homo sapiens, U-87 MG, 24 h), 7.5 µM.

Regarding `Cc1ccccc1Oc1cc(-n2c(=O)cc(C(F)(F)Cl)[nH]c2=O)c(F)cc1C#N` [Example 40, 4-{4-[Chloro(difluoro)methyl]-2,6-dioxo-3,6-dihydropyrimidin-1(2H)-yl}-5-fluoro-2-(2-methylphenoxy)benzonitrile], the IC50 turned out to be 2.2 µM in test [2]; 0.445 µM in test [1]; 12 µM with MDA-MB231 cells (Homo sapiens, MDA-MB-231, 24 h); 4.63 µM in the test with U87-MG cells (Homo sapiens, U-87 MG, 24 h).

For `Cc1ccccc1Oc1cc(-n2c(=O)cc(Br)[nH]c2=O)c(F)cc1C#N` [Example 3, 4-(4-Bromo-2,6-dioxo-3,6-dihydropyrimidin-1(2H)-yl)-5-fluoro-2-(2-methylphenoxy)benzonitrile], the IC50 is 5.5 µM in test [2]; 0.315 µM in test [1]; over 30 µM in the test on MDA-MB231 cells (Homo sapiens, MDA-MB-231, 24 h); 11.1 µM in the test with U87-MG cells (Homo sapiens, U-87 MG, 24 h).

As for `Cc1ccccc1Oc1cc(-n2c(=O)cc(-c3cccc(Cl)c3)[nH]c2=O)c(F)cc1C#N` [Example 70, 4-[4-(3-Chlorophenyl)-2,6-dioxo-3,6-dihydropyrimidin-1(2H)-yl]-5-fluoro-2-(2-methylphenoxy)benzonitrile], the IC50 in test [1] was 1.33 µM; in the test with MDA-MB231 cells (Homo sapiens, MDA-MB-231, 24 h), over 30 µM; in the test on U87-MG cells, over 30 µM; with U87-MG cells (Homo sapiens, U-87 MG, 24 h) it was 30 µM.

Regarding `Cc1ccccc1Oc1cc(-n2c(=O)cc(C(F)(F)C(F)(F)F)[nH]c2=O)c(F)cc1C#N` [Example 52, 4-[2,6-dioxo-4-(pentafluoroethyl)-3,6-dihydropyrimidin-1(2H)-yl]-5-fluoro-2-(2-methylphenoxy)benzonitrile], the IC50 in test [1] worked out at 1.35 µM; in the test on MDA-MB231 cells (Homo sapiens, MDA-MB-231, 24 h) it was 30 µM; in the test on U87-MG cells (Homo sapiens, U-87 MG, 24 h) it was 2.95 µM.

On to `COc1cc(C#N)c(Oc2ccccc2Cl)cc1-n1c(=O)cc(C(F)(F)F)[nH]c1=O` (single isomer, unassigned) [Example 16, 2-(2-Chlorophenoxy)-4-[2,6-dioxo-4-(trifluoromethyl)-3,6-dihydropyrimidin-1(2H)-yl]-5-methoxybenzonitrile (atrop 1)], for which the IC50 in test [2] was determined as 2.5 µM; in test [1] it was 0.15 µM; in the test on MDA-MB231 cells (Homo sapiens, MDA-MB-231, 24 h), 10.8 µM; in the test on U87-MG cells (Homo sapiens, U-87 MG, 24 h), 5.4 µM.

For the compound `COc1cc(C#N)c(Oc2ccccc2C)cc1-n1c(=O)cc(S(=O)(=O)c2ccccc2)[nH]c1=O` (single isomer, unassigned) [Example 77, 4-[4-(Benzenesulfonyl)-2,6-dioxo-3,6-dihydropyrimidin-1(2H)-yl]-5-methoxy-2-(2-methylphenoxy)benzonitrile (atrop 1)], the 50% inhibitory concentration (IC50) in test [2] is 0.77 µM; in the test with MDA-MB231 cells, 16 µM; in the test on U87-MG cells (Homo sapiens, U-87 MG, 24 h) it was 16.5 µM.

`Cc1ccccc1Oc1cc(-n2c(=O)cc(C(=O)NCC(F)(F)F)[nH]c2=O)c(F)cc1C#N` [Example 71, 1-[4-Cyano-2-fluoro-5-(2-methylphenoxy)phenyl]-2,6-dioxo-N-(2,2,2-trifluoroethyl)-1,2,3,6-tetrahydropyrimidine-4-carboxamide]: the IC50 in test [1] was 1.75 µM; in the test with MDA-MB231 cells (Homo sapiens, MDA-MB-231, 24 h) it was over 30 µM; with U87-MG cells (Homo sapiens, U-87 MG, 24 h), over 30 µM.

As to `COc1cc(C#N)c(Oc2ccccc2C)cc1-n1c(=O)cc(S(=O)(=O)c2ccccc2)[nH]c1=O` (single isomer, unassigned) [Example 78, 4-[4-(Benzenesulfonyl)-2,6-dioxo-3,6-dihydropyrimidin-1(2H)-yl]-5-methoxy-2-(2-methylphenoxy)benzonitrile (atrop 2)], the results for the IC50 (in test [2]; in the test with MDA-MB231 cells; in the test on U87-MG cells) were 0.14 µM, 3.8 µM and 12.5 µM, respectively.

The values are drawn from patent publication US20220411381A1, “PYRIMIDINEDIONE DERIVATIVES” (Bayer Aktiengesellschaft, priority 2019, published 2022).
